Laboratory results reported in patent publication US10647738B2, “Xylene-based amphiphilic compound and use thereof” (Industry-University Cooperation Foundation Hanyang …, priority 2016, dated 2020).
“And” between values parts separate entries of the source, which are not always exact repeats. Identical values can stand only once.

Legend:
[1] = Critical micelle concentration by fluorescence staining with diphenylhexatriene (DPH); format: physicochemical; details: aqueous solution
Protocol: While a method for measuring CMC is not particularly limited, a method widely known in the art may be used, and the measurement may be performed by, for example, a fluorescence staining method using diphenylhexatriene (DPH).
(§1) Specifically, the critical micellar concentration (CMC) was measured using fluorescence staining and diphenylhexatriene (DPH), and the hydrodynamic radii (Rh) of the micelles formed by agents were measured through a dynamic light scattering (DLS) experiment. The measured results are shown in Tables 1 and 2, compared with a conventional amphiphilic molecule (detergent), DDM.

[2] = Hydrodynamic radius and size distribution of micelles by dynamic light scattering (DLS); format: physicochemical; details: for Rh (nm), hydrodynamic radius of micelles: 1.0 wt % stated for M-/O-XMAs (FIG. 37); for size distribution of micelles (number of micelle sets): FIGS. 36 and 37
Protocol: A method for measuring the radius of a micelle is not particularly limited, but a method well known in the art may be used, and for example, the measurement may be performed using a dynamic light scattering (DLS) experiment.
as §1

[3] = target: T1, melibiose permease (MelB) (Salmonella typhimurium, UniProt P30878); test: MelB extraction from membranes and thermostability, SDS-PAGE and western blotting; details: for MelBSt stabilization ability compared with DDM: 1.5 wt % detergent, 0, 45, 55 and 65° C.
T1 construct: made in house; host or cells: Salmonella typhimurium DW2 cells (ΔmelB and ΔlacZY) (so in the source); membrane preparation
T1 sequence (P30878 whole entry): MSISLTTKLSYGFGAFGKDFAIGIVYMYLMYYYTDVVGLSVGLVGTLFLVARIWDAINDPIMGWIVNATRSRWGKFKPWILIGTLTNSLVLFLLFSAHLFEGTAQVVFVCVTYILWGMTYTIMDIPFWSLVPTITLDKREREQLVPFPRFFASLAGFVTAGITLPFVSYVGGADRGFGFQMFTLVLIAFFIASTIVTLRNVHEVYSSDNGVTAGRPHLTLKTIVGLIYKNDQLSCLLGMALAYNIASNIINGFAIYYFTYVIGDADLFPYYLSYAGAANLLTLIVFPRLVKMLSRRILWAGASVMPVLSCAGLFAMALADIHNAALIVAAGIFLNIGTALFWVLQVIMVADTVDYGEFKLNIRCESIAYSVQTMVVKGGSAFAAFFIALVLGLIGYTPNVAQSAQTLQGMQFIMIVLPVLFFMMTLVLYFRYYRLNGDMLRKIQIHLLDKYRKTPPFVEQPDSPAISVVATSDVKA
Protocol: An experiment for measuring the structural stability of the Salmonella typhimurium melibiose permease (MelB) protein due to XMAs was performed. The MelB protein was extracted on a membrane using XMAs and DDM, and the amount and structure of the extracted protein were analyzed by SDS-PAGE and western blotting. A concentration of the used compound was 1.5 wt %, and the protein was extracted at a different temperature (0, 45, 55, or 65° C.) to evaluate two kinds of performance such as protein extraction efficiency and stabilization ability of the compound at the same time. Membrane samples that were not treated with XMAs or DDM were used as controls.
Specifically, MelBSt stability due to DDM and XMAs was evaluated according to the method described in the paper (P. S. Chae, et al., Nat. Methods 2010, 7, 1003-1008) written by the inventor in 2010. The protein (MelBSt) was produced using plasmid pK95ΔAHB/WT MelBSt/CH10 encoding wild-type MelB with a 10-His tag at the C-terminus and Salmonella typhimurium DW2 cells (ΔmelB and ΔlacZY). Cell growth and membrane preparation were carried out according to the method described in the paper (Nat. Commun. 2014, 5, 3009) written by A. S. Ethayathulla et al. A protein assay was performed using a Micro BCA kit (Thermo Scientific, Rockford, Ill.). To measure solubilization/stability, MelBSt-containing membrane samples (final protein concentration of 10 mg/mL) were incubated with a solubilization buffer (20 mM sodium phosphate, pH 7.5, 200 mM NaCl, 10% glycerol, 20 mM melibiose) and 1.5% (w/v) DDM, P-XMAs (P-XMA-C8, P-XMA-C9, P-XMA-C10, P-XMA-C11 and P-XMA-C12), M-XMAs (M-XMA-C11, M-XMA-C12, M-XMA-C14, M-XMA-C16 and M-XMA-C18) or O-XMAs (O-XMA-C11, O-XMA-C12, O-XMA-C14, O-XMA-C16 and O-XMA-C18) at four different temperatures (0, 45, 55 and 65° C.) for 90 minutes. Following ultracentrifugation at 355,590 g in a Beckman Optima™ MAX ultracentrifuge using a TLA-100 rotor for 45 minutes at 4° C., 20 μg proteins were separated by SDS-16% PAGE, and then immunoblotted with a Penta-His-HRP antibody (Qiagen, Germantown, Md.). MelBSt was detected using a SuperSignal West Pico chemiluminescent substrate by an ImageQuant LAS 4000 Biomolecular Imager (GE Health Care Life Sciences).

[4] = 1.5 wt % detergent, 0° C., 90 minutes
[5] = 1.5 wt % detergent, 45° C., 90 minutes
[6] = 1.5 wt % detergent, 55° C., 90 minutes

Row | SMILES | CMC [1] | CMC (wt %) [1] | Rh (nm), hydrodynamic radius of micelles [2] | MelB protein extraction efficiency [3, 4] | micelle size compared with DDM [2] | size distribution of micelles (number of micelle sets) [2] | MelBSt stabilization ability compared with DDM [3] | MelB protein extraction efficiency [3, 5] | MelB protein extraction / maintained solubilization [3, 6] | MelB protein extraction ([3]; 1.5 wt % detergent, 65° C., 90 minutes) | solubilized MelB retained, percentage of total protein in untreated membrane sample ([3]; 1.5 wt % detergent, 55° C.)
1 | CCCCCCCCCCCCCCCCCCC(CO[C@@H]1OC(CO)[C@@H](O[C@@H]2OC(CO)[C@@H](O)C(O)C2O)C(O)C1O)(CO[C@@H]1OC(CO)[C@@H](O[C@@H]2OC(CO)[C@@H](O)C(O)C2O)C(O)C1O)Cc1cccc(CC(CCCCCCCCCCCCCCCCCC)(CO[C@@H]2OC(CO)[C@@H](O[C@@H]3OC(CO)[C@@H](O)C(O)C3O)C(O)C2O)CO[C@@H]2OC(CO)[C@@H](O[C@@H]3OC(CO)[C@@H](O)C(O)C3O)C(O)C2O)c1 (stereo partly shown) [M-XMA-C18] | ~1.5 µM | ~0.0003 wt % | 4.1 ± 0.04 nm | protein extraction efficiency at almost the same level as DDM |  |  |  |  |  |  | 
2 | CCCCCCCCCC(CO[C@@H]1OC(CO)[C@@H](O[C@H]2OC(CO)[C@@H](O)C(O)C2O)C(O)C1O)(CO[C@@H]1OC(CO)[C@@H](O[C@H]2OC(CO)[C@@H](O)C(O)C2O)C(O)C1O)Cc1ccc(CC(CCCCCCCCC)(CO[C@@H]2OC(CO)[C@@H](O[C@H]3OC(CO)[C@@H](O)C(O)C3O)C(O)C2O)CO[C@@H]2OC(CO)[C@@H](O[C@H]3OC(CO)[C@@H](O)C(O)C3O)C(O)C2O)cc1 (stereo partly shown) [P-XMA-C9] | ~10 µM | ~0.002 wt % | 3.2 ± 0.01 nm |  | smaller than DDM | one set of micelles | higher MelBSt stabilization ability than DDM | extraction efficiency at the same level as DDM | higher MelBSt extraction ability than DDM |  | 
3 | CCCCCCCCCCC(CO[C@@H]1OC(CO)[C@@H](O[C@H]2OC(CO)[C@@H](O)C(O)C2O)C(O)C1O)(CO[C@@H]1OC(CO)[C@@H](O[C@H]2OC(CO)[C@@H](O)C(O)C2O)C(O)C1O)Cc1ccc(CC(CCCCCCCCCC)(CO[C@@H]2OC(CO)[C@@H](O[C@H]3OC(CO)[C@@H](O)C(O)C3O)C(O)C2O)CO[C@@H]2OC(CO)[C@@H](O[C@H]3OC(CO)[C@@H](O)C(O)C3O)C(O)C2O)cc1 (stereo partly shown) [P-XMA-C10] | ~7 µM | ~0.001 wt % | 3.5 ± 0.01 nm |  |  | two sets of micelles having different radii | higher MelBSt stabilization ability than DDM | extraction efficiency at the same level as DDM | higher MelBSt extraction ability than DDM | extracted MelBSt | 
4 | CCCCCCCCCCCCCCCCC(CO[C@@H]1OC(CO)[C@@H](O[C@@H]2OC(CO)[C@@H](O)C(O)C2O)C(O)C1O)(CO[C@@H]1OC(CO)[C@@H](O[C@@H]2OC(CO)[C@@H](O)C(O)C2O)C(O)C1O)Cc1ccccc1CC(CCCCCCCCCCCCCCCC)(CO[C@@H]1OC(CO)[C@@H](O[C@@H]2OC(CO)[C@@H](O)C(O)C2O)C(O)C1O)CO[C@@H]1OC(CO)[C@@H](O[C@@H]2OC(CO)[C@@H](O)C(O)C2O)C(O)C1O (stereo partly shown) [O-XMA-C16] | ~2.0 µM | ~0.0004 wt % | 3.9 ± 0.06 nm |  |  |  |  |  |  |  | 
5 | CCCCCCCCCCCCCCC(CO[C@@H]1OC(CO)[C@@H](O[C@@H]2OC(CO)[C@@H](O)C(O)C2O)C(O)C1O)(CO[C@@H]1OC(CO)[C@@H](O[C@@H]2OC(CO)[C@@H](O)C(O)C2O)C(O)C1O)Cc1ccccc1CC(CCCCCCCCCCCCCC)(CO[C@@H]1OC(CO)[C@@H](O[C@@H]2OC(CO)[C@@H](O)C(O)C2O)C(O)C1O)CO[C@@H]1OC(CO)[C@@H](O[C@@H]2OC(CO)[C@@H](O)C(O)C2O)C(O)C1O (stereo partly shown) [O-XMA-C14] | ~3.0 µM | ~0.0006 wt % | 3.5 ± 0.04 nm |  |  |  |  |  |  |  | 
6 | CCCCCCCCCCCC(CO[C@@H]1OC(CO)[C@@H](O[C@@H]2OC(CO)[C@@H](O)C(O)C2O)C(O)C1O)(CO[C@@H]1OC(CO)[C@@H](O[C@@H]2OC(CO)[C@@H](O)C(O)C2O)C(O)C1O)Cc1ccccc1C[C@](CCCCCCCCCCC)(CO[C@@H]1OC(CO)[C@@H](O[C@H]2OC(CO)[C@@H](O)C(O)C2O)C(O)C1O)CO[C@@H]1OC(CO)[C@@H](O[C@@H]2OC(CO)[C@@H](O)C(O)C2O)C(O)C1O (stereo partly shown) [O-XMA-C11] |  | ~0.0019 wt % | 3.0 ± 0.02 nm |  |  |  |  |  |  |  | 
7 | CCCCCCCCCCCCCCCCCCC(CO[C@@H]1OC(CO)[C@@H](O[C@@H]2OC(CO)[C@@H](O)C(O)C2O)C(O)C1O)(CO[C@@H]1OC(CO)[C@@H](O[C@@H]2OC(CO)[C@@H](O)C(O)C2O)C(O)C1O)Cc1ccccc1CC(CCCCCCCCCCCCCCCCCC)(CO[C@@H]1OC(CO)[C@@H](O[C@@H]2OC(CO)[C@@H](O)C(O)C2O)C(O)C1O)CO[C@@H]1OC(CO)[C@@H](O[C@@H]2OC(CO)[C@@H](O)C(O)C2O)C(O)C1O (stereo partly shown) [O-XMA-C18] |  | ~0.0003 wt % | 3.9 ± 0.04 nm |  |  |  |  |  |  |  | 
8 | CCCCCCCCC(CO[C@@H]1OC(CO)[C@@H](O[C@H]2OC(CO)[C@@H](O)C(O)C2O)C(O)C1O)(CO[C@@H]1OC(CO)[C@@H](O[C@H]2OC(CO)[C@@H](O)C(O)C2O)C(O)C1O)Cc1ccc(C[C@](CCCCCCCC)(CO[C@H]2CC(O)[C@H](O[C@H]3OC(CO)[C@@H](O)C(O)C3O)C(CO)O2)CO[C@@H]2OC(CO)[C@@H](O[C@H]3OC(CO)[C@@H](O)C(O)C3O)C(O)C2O)cc1 (stereo partly shown) [P-XMA-C8] |  | ~0.004 wt % | 2.7 nm and 2.7 ± 0.04 nm |  | smaller than DDM | one set of micelles |  |  |  |  | 
9 | CCCCCCCCCCCCCCCC[C@@](CO[C@@H]1OC(CO)[C@@H](O[C@H]2OC(CO)[C@@H](O)C(O)C2O)C(O)C1O)(CO[C@@H]1OC(CO)[C@@H](O[C@@H]2OC(CO)[C@@H](O)C(O)C2O)C(O)C1O)Cc1cccc(C[C@](CCCCCCCCCCCCCCCC)(CO[C@@H]2OC(CO)[C@@H](O[C@H]3OC(CO)[C@@H](O)C(O)C3O)C(O)C2O)CO[C@@H]2CC(CO)[C@@H](O[C@H]3OC(CO)[C@@H](O)C(O)C3O)C(O)C2O)c1 (stereo partly shown) [M-XMA-C16] | ~2.0 µM | ~0.0004 wt % | 3.9 ± 0.04 nm | protein extraction efficiency at almost the same level as DDM |  |  |  |  |  |  | 
10 | CCCCCCCCCCCCCCC(CO[C@@H]1OC(CO)[C@@H](O[C@H]2OC(CO)[C@@H](O)C(O)C2O)C(O)C1O)(CO[C@@H]1OC(CO)[C@@H](O[C@H]2OC(CO)[C@@H](O)C(O)C2O)C(O)C1O)Cc1cccc(C[C@](CCCCCCCCCCCCCC)(CO[C@@H]2OC(CO)[C@@H](O[C@H]3OC(CO)[C@@H](O)C(O)C3O)C(O)C2O)CO[C@@H]2OC(CO)[C@@H](O[C@@H]3OC(CO)[C@@H](O)C(O)C3O)C(O)C2O)c1 (stereo partly shown) [M-XMA-C14] | ~2.5 µM | ~0.0005 wt % | 3.6 ± 0.07 nm |  |  |  |  |  | most effective |  | approximately 70%
